According to patent publication US20210154271A1, “CORNEAL EPITHELIAL CELL CHEMOTAXIS PROMOTER” (SHIODA LIFE SCIENCE INC., priority 2018, published 2021):
Ends that are not written are not given here.

Key:
[1] = tested on: HCEC-II cells; assay: Analysis of cell growth ability (MTT-assay); assay type: cell-based, human
Method: (§1) Normal human corneal epithelial cells HCEC-II (manufactured by Kurabo Industries Ltd.) were cultured in an OcuLifeBM medium containing OcuLifeLifeFactor (both manufactured by Kurashiki Spinning Co., Ltd.) at 37° C., in the presence of 5% CO2.
HCEC-II cells were seeded in 96-well plates and cultured for 24 h. Subsequently, PACAP alone, or PACAP and AraC (cytarabine) were added. AraC (cytarabine) is a cytostatic agent. After the addition of these agents, the cell growth ability was analyzed by measuring the number of live cells from the value of absorbance at 570 nm using MTT cell growth kit I (manufactured by Roche Life Science Co., Ltd.). The reference wavelength was set at 650 nm.
The effects of PACAP are either due to 1) promoting cell growth, 2) promoting cell chemotaxis, or 3) promoting both cell growth and chemotaxis. To elucidate which of these could be caused, cell growth on days 1 and 4 after adding various concentrations of PACAP (10^−9 M to 10^−13 M) were analyzed by MTT-assay.

[2] = tested on: model mice with injured corneas; assay: Instillation of PACAP receptor antagonists on model mice with injured corneas; assay type: in vivo, mouse
Source text: Next, to investigate which types of receptors are involved in healing-promoting effects of injured corneas by PACAP, the inventors performed an instillation experiment of PACAP receptor antagonists (PACAP6-38, VIP6-28). PACAP6-38 is an antagonist of PAC1R and VPAC2R. VIP6-28 is an antagonist of VPAC1R and VPAC2R.
In addition to the same operations as the instillation experiment in Example 5, PACAP6-38 (antagonist) (10^−9 M) or VIP6-28 (antagonist) (10^−9 M) was instilled immediately before instillation of PACAP and saline. Instillation of PACAP and saline ware performed every 2 hours.
Following four groups were created; the saline-only-instilled group, the PACAP-only-instilled group, the group instilled saline and an antagonist simultaneously, the group instilled PACAP and an antagonist simultaneously.
FIG. 10A is the result of PACAP6-38, and FIG. 10B is the result of VIP6-28. In FIG. 10, “saline” indicates the saline-only-instilled group. “PACAP” indicates the PACAP-only-instilled group. “PACAP6-38” or “VIP6-28” indicates the group instilled saline and an antagonist simultaneously. “PACAP6-38+PACAP” or “VIP6-28+PACAP” indicates the group instilled PACAP and an antagonist simultaneously.
As well as FIG. 9C, the area of the injured site of the cornea immediately after injury to the cornea (0 hour) is set as 100%.

[3] = tested on: eye of a rabbit with detached corneas; conditions: PACAP administered to eye, in comparison with controls; cited from earlier work
[4] = tested on: model mice with injured corneas; assay: PACAP instillation on model mice with injured corneas; assay type: in vivo, mouse (C57BL/6J)
Method: To study the healing effects of PACAP instillation on an injured site of a corneal, the inventors created model mice with injured corneas. Injured sites were created by marking a cornea of a mouse (C57BL/6J, male, 8-12 weeks old) with a 1-mm-diameter biopsy punch and detaching corneal epithelia within the marks with tweezers. At the injured sites, 2 μL of 10^−9 M PACAP, 10^−11 M PACAP, 10^−13 M PACAP, or saline was instilled every 2 hours for a total of seven times up to 12 hours later. In addition, the injured sites were visualized by instilling 2 μL of 0.1% fluorescein (a fluorescent colorant) in a total of 3 times after 0, 12, and 24 hours, and photographing was performed.
In addition, eyeballs at after 0 and 12 hours were removed, and tissue sections were made after paraffin embedding, followed by hematoxylin and eosin staining (HE staining). From the captured fluorescent images, by using image analysis software (ImageJ), the area and the outer periphery of injured sites of corneas were measured when saline was instilled and when PACAP of the respective concentrations were instilled.
(§2) The area of the injured site of the cornea immediately after injury to the cornea (0 hour) is set as 100%.

[5] = tested on: SV40-human corneal epithelial cell line (HCEC); assay: In vitro scratch assay on monolayer sheets of human corneal cultured cells; assay type: cell-based; conditions: 10^−11 M PACAP, 6 hours after scratching, vs PBS-treated control group (FIG. 12B)
Method: To evaluate the corneal healing effects of PACAP in vitro, a scratch assay was performed using a human corneal epithelial cell line. A SV40-human corneal epithelial cell line (HCEC) was purchased from the Human Science Research Resource Bank (Health Science Research Resources Bank). Cells were cultured in a medium containing DMEM, 1×antibiotic-antifungal agent (manufactured by Thermo Fisher Scientific Co., Ltd.), and 10% fetal bovine serum (FBS). Cultures were performed at 37° C. in the presence of 5% CO2.
In invasion assays, a floating HCEC with 10^6 cells was seeded in 12-well plates. After 2 days of incubation, the confluent cell layer was cross-shaped wounded with plastic sticks. PBS or various types of PACAP (final concentrations: 10^−15 M, 10^−13 M, 10^−11 M, 10^−9 M, and 10^−7 M) were added to […]. Scratch sites (wounded sites) were photographed by Nicon Biostation CT (Nikon Co., Ltd.) at regular intervals. Areas of the scratch sites were measured by CL-Quant software (made by Nikon Inc.).
The area of the scratch site immediately after the scratch (0 hour) is set as 100%.

[6] = tested on: mice with lacrimal glands removed; assay: Tear secretion by the cotton thread method; assay type: in vivo, mouse; conditions: mice with lacrimal glands removed (not shown in figures)
Source text: (§3) First, mice with lacrimal glands removed were generated. Under inhalation anesthesia with sevoflurane, the extraorbital lacrimal glands and lacrimal ducts of mice were removed. Both lacrimal glands were removed after the lacrimal ducts were removed to expose the intraorbital lacrimal glands. Then the skin was sutured and the mice were kept warm until awaking from anesthesia. The amount of tear secretion in mice before and after removal of lacrimal glands was confirmed by the cotton thread method.

[7] = tested on: HCEC-II cells; assay: BrdU labeling of dividing cells; assay type: cell-based, human; conditions: 18 hours after adding PACAP (FIGS. 4A, 4B and 5)
Method: Post-wounding dividing cells were observed by labeling with BrdU Labeling and Detection Kit I (Roche).
(§4) Outcomes of scratch assay and BrdU labeling were evaluated as following. Images were acquired by BZ-X700 (Keyence Inc.), and then quantitatively analyzed using the analysis applications (hybrid cell counts, macro cell counts) (Keyence Inc.).

[8] = tested on: mice with lacrimal glands removed, injured corneas; assay: Corneal healing in mice with lacrimal glands removed; assay type: in vivo, mouse; conditions: LG−PACAP vs LG−saline, 10^−11 M PACAP, 12 hours after injuring, p<0.05 (FIG. 11)
Source text: as §3
FIG. 11 is a graph showing the measurement result of the area of injured sites of corneas (fluorescent area) of upon administration of saline or PACAP at 0, 12, and 24 hours after injuring of corneas of mice. The method and the frequency of administration of saline or PACAP were the same as in Example 5.
as §2
In FIG. 11, “LG+saline” indicates the result of saline administration to mice without lacrimal glands removed. “LG+PACAP” indicates the result of PACAP administration to mice without lacrimal glands removed. “LG−saline” indicates the result of saline administration to mice with lacrimal glands removed. “LG−PACAP” indicates the result of PACAP administration to mice with lacrimal glands removed. The concentration of PACAP is 10^−11 M.

[9] = tested on: Normal human corneal epithelial cells HCEC-II; assay: Scratch assay on HCEC-II cells; assay type: cell-based
Method: as §1
Wound-healing-promoting effects of PACAP were evaluated by scratch assay. HCEC-II cells were seeded in 24-well plates, cultured, and then wounded by a CELL Scratcher scratch stick (manufactured by Asahi Glass Co., Ltd.) (between a dotted line and a dotted line in FIG. 1).
Immediately after wounding, PACAP38 alone or PACAP38 and AraC were added, and cells infiltrating the wounded area were observed.
as §4

[10] = 10^−9 M PACAP and 15 μM AraC (FIG. 1A to C)

Molecule: Nc1ccn([C@@H]2O[C@H](CO)[C@@H](O)[C@@H]2O)c(=O)n1 [AraC, cytarabine, reference compound]
- effect of AraC on the cell-growth-promoting effects of PACAP ([1]; 15 μM AraC): almost completely suppressed

Molecule: PACAP6-38: PACAP receptor antagonist; antagonist of PAC1R and VPAC2R (FTDSYSRYRKQMAVKKYLAAVLGKRYKQRVKNK; ends and bridges not checked; UniProt P18509 137-169, looked up, fragment)
- effect of antagonist on PACAP-induced healing of injured corneas ([2]; antagonist 10^−9 M instilled with PACAP, 12 hours after injuring, vs PACAP-only group, p<0.05 (FIG. 10A)): significantly suppressed

Molecule: PACAP: Pituitary Adenylate Cyclase-Activating Polypeptide; PACAP38, 38 amino acid residues (Peptide Research Institute, Osaka) (HSDGIFTDSYSRYRKQMAVKKYLAAVLGKRYKQRVKNK; ends and bridges not checked; UniProt P18509 132-169, looked up)
- cell growth by MTT-assay ([1]; 1 day after addition, 10^−9 M to 10^−13 M PACAP, relative to cells with no PACAP (FIG. 3)): cells grew at any concentration
- cell growth by MTT-assay ([1]; 4 days after addition, 10^−9 M to 10^−13 M PACAP (FIG. 3)): the effect was remarkable
- restoration of corneal epithelium [3]: accelerated
- area of the injured site of the cornea (fluorescent area) ([4]; 10^−9 M PACAP instilled, 12 hours after injuring, vs saline group (FIG. 9C)): significantly smaller
- periphery of the injured site of the cornea ([4]; 10^−9 M PACAP instilled, 12 hours after injuring, vs saline group (not shown in figures)): significantly smaller
- area of the injured site of the cornea (fluorescent area) ([4]; 10^−11 M PACAP instilled, 12 hours after injuring, vs saline group (FIG. 9C)): significantly smaller
- periphery of the injured site of the cornea ([4]; 10^−11 M PACAP instilled, 12 hours after injuring, vs saline group (not shown in figures)): significantly smaller
- size of injured sites of corneas (fluorescence image) ([4]; 12 and 24 hours after injuring, PACAP-instilled vs saline-instilled group (FIG. 9A)): became smaller than those of the saline-instilled group
- corneal epithelium in HE staining ([4]; 12 hours after instillation (FIG. 9B)): the corneal epithelium was restored
- area of the injured site of the cornea (fluorescent area) ([4]; all concentrations (10^−9, 10^−11, 10^−13 M), 24 hours after injuring, p<0.01 vs saline group (FIG. 9C)): significantly smaller
- periphery of the injured site of the cornea ([4]; all concentrations, 24 hours after injuring (not shown in figures)): significantly smaller
- most effective concentration of PACAP ([4]; instillation, injured cornea area): 10^−11 M
- area of the scratch site [5]: significantly reduced
- tear secretion after instillation [6]: did not promote tear secretion
- number of BrdU positive (dividing) cells [7]: an increase of number of BrdU positive cells
- area of injured sites of corneas (fluorescent area) [8]: became significantly smaller
- cell-infiltration compared with 10^−9 M PACAP alone [9, 10]: less
- cell-infiltration compared with controls [9, 10]: increased more than in controls
- area of the wounded site at 18 h ([9]; 10^−9 M PACAP in the presence of 15 μM AraC, compared to the control (FIG. 6)): increased
- cellular infiltrates at the wounded site ([9]; 10^−9 M PACAP, 4 days post-wounding, compared to controls (FIG. 1A, B)): more cellular infiltrates were observed at the wounded site
- area of the wounded site ([9]; 10^−9 M PACAP, compared to controls (FIG. 2, 18 h)): reduced
- area of the wounded site at 18 h ([9]; 10^−11 M PACAP in the presence of 15 μM AraC (FIG. 6)): reduced

Molecule: VIP6-28: PACAP receptor antagonist; antagonist of VPAC1R and VPAC2R (FTDNYTRLRKQMAVKKYLNSILN; ends and bridges not checked; UniProt P01282 130-152, looked up, fragment)
- effect of antagonist on PACAP-induced healing of injured corneas ([2]; antagonist 10^−9 M instilled with PACAP (FIG. 10B)): not suppressed
